Results from US20230085307A1, “PYRIDAZINONE COMPOUND AND HERBICIDE” (NISSAN CHEMICAL CORPORATION, priority 2019, published 2023).

Key:
lambsquarters [1] = assay: Test Example 4: herbicidal effect by soil treatment (Table 19, symbol O); assay type: in vivo, lambsquarters (Chenopodium album); settings: amount of applied herbicide 320 g/ha
Outline: (§1)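 Step 1: sow seeds in sterilized diluvial soil, cover ~1.5 cm. Step 2: spray diluted emulsion onto soil surface at predetermined rate. Step 3: greenhouse, 25–30° C, three weeks. Step 4: grade effect on each plant by earlier criteria.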

rice flat sedge = assay: Test Example 3: herbicidal effect by foliage application, Wagner pot (Table 18, symbol E); assay type: in vivo, rice flat sedge (Cyperus iria)
Outline: (§2)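 Plants were sown in alluvial soil held under 0.1–0.5 cm standing water and grown 14 days in a greenhouse at 25–30 °C. An emulsifiable formulation, water-diluted to the set dose, was then sprayed onto the foliage, and effects were scored three weeks later using previously defined criteria.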

oval-leafed pondweed = assay: Test Example 1: herbicidal activity, application before weed generation under submerged conditions (Table 16, symbol C); assay type: in vivo, oval-leafed pondweed (Monochoria vaginalis); settings: amount of applied herbicide 320 g/ha
Outline: (§3)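 Alluvial soil was flooded to 4 cm depth, weed seeds were sown mixed and 2.5-leaf rice seedlings were transplanted. On sowing day, the compound's emulsion, diluted in water to a set dose, was applied to the water surface. Plants grew at 25–30 °C and were scored 0–5 after three weeks.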

chickweed [2] = assay: Test Example 4: herbicidal effect by soil treatment (Table 19, symbol P); assay type: in vivo, common chickweed (Stellaria media); settings: amount of applied herbicide 320 g/ha
Outline: as §1

blackgrass [3] = assay: Test Example 4: herbicidal effect by soil treatment (Table 19, symbol J); assay type: in vivo, blackgrass (Alopecurus myosuroides); settings: amount of applied herbicide 320 g/ha
Outline: as §1

chickweed [4] = assay: Test Example 5: herbicidal effect by foliage application, plastic box (Table 20, symbol P); assay type: in vivo, common chickweed (Stellaria media); settings: foliage application
Outline: (§4)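 Foliar spray test: emulsion formulation diluted in water to a set application rate, sprayed onto 14-day-old plants raised in diluvial soil at 25° C to 30° C under glass. Both herbicidal effect and crop effect rated visually three weeks later.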

false cleavers = assay: Test Example 4: herbicidal effect by soil treatment (Table 19, symbol Q); assay type: in vivo, false cleavers (Galium spurium); settings: amount of applied herbicide 320 g/ha
Outline: as §1

redroot pigweed [5] = assay: Test Example 5: herbicidal effect by foliage application, plastic box (Table 20, symbol N); assay type: in vivo, redroot pigweed (Amaranthus retroflexus); settings: foliage application
Outline: as §4

Italian ryegrass [6] = assay: Test Example 4: herbicidal effect by soil treatment (Table 19, symbol K); assay type: in vivo, Italian ryegrass (Lolium multiflorum); settings: amount of applied herbicide 320 g/ha
Outline: as §1

wild oat [7] = assay: Test Example 5: herbicidal effect by foliage application, plastic box (Table 20, symbol I); assay type: in vivo, wild oat (Avena fatua); settings: foliage application
Outline: as §4

southern crabgrass [8] = assay: Test Example 4: herbicidal effect by soil treatment (Table 19, symbol F); assay type: in vivo, southern crabgrass (Digitaria ciliaris); settings: amount of applied herbicide 320 g/ha
Outline: as §1

Japanese bulrush = assay: Test Example 1: herbicidal activity, application before weed generation under submerged conditions (Table 16, symbol B); assay type: in vivo, Japanese bulrush (Schoenoplectus juncoides); settings: amount of applied herbicide 320 g/ha
Outline: as §3

Italian ryegrass [9] = assay: Test Example 5: herbicidal effect by foliage application, plastic box (Table 20, symbol K); assay type: in vivo, Italian ryegrass (Lolium multiflorum); settings: foliage application
Outline: as §4

barnyard grass [10] = assay: Test Example 3: herbicidal effect by foliage application, Wagner pot (Table 18, symbol H); assay type: in vivo, barnyard grass (Echinochloa crus-galli); settings: 320 g/ha
Outline: as §2

green foxtail [11] = assay: Test Example 4: herbicidal effect by soil treatment (Table 19, symbol G); assay type: in vivo, green foxtail (Setaria viridis); settings: amount of applied herbicide 320 g/ha
Outline: as §1

Chinese sprangletop = assay: Test Example 3: herbicidal effect by foliage application, Wagner pot (Table 18, symbol D); assay type: in vivo, chinese sprangletop (Leptochloa chinensis)
Outline: as §2

green foxtail [12] = assay: Test Example 5: herbicidal effect by foliage application, plastic box (Table 20, symbol G); assay type: in vivo, green foxtail (Setaria viridis); settings: foliage application
Outline: as §4

blackgrass [13] = assay: Test Example 5: herbicidal effect by foliage application, plastic box (Table 20, symbol J); assay type: in vivo, blackgrass (Alopecurus myosuroides); settings: foliage application
Outline: as §4

velvetleaf [14] = assay: Test Example 4: herbicidal effect by soil treatment (Table 19, symbol M); assay type: in vivo, velvetleaf (Abutilon theophrasti); settings: amount of applied herbicide 320 g/ha
Outline: as §1

wild oat [15] = assay: Test Example 4: herbicidal effect by soil treatment (Table 19, symbol I); assay type: in vivo, wild oat (Avena fatua); settings: amount of applied herbicide 320 g/ha
Outline: as §1

windgrass [16] = assay: Test Example 4: herbicidal effect by soil treatment (Table 19, symbol L); assay type: in vivo, windgrass (Apera spica-venti); settings: amount of applied herbicide 320 g/ha
Outline: as §1

windgrass [17] = assay: Test Example 5: herbicidal effect by foliage application, plastic box (Table 20, symbol L); assay type: in vivo, windgrass (Apera spica-venti); settings: foliage application
Outline: as §4

persian speedwell [18] = assay: Test Example 4: herbicidal effect by soil treatment (Table 19, symbol R); assay type: in vivo, Persian speedwell (Veronica persica); settings: amount of applied herbicide 320 g/ha
Outline: as §1

persian speedwell [19] = assay: Test Example 5: herbicidal effect by foliage application, plastic box (Table 20, symbol R); assay type: in vivo, Persian speedwell (Veronica persica); settings: foliage application
Outline: as §4

redroot pigweed [20] = assay: Test Example 4: herbicidal effect by soil treatment (Table 19, symbol N); assay type: in vivo, redroot pigweed (Amaranthus retroflexus); settings: amount of applied herbicide 320 g/ha
Outline: as §1

barnyard grass [21] = assay: Test Example 4: herbicidal effect by soil treatment (Table 19, symbol H); assay type: in vivo, barnyard grass (Echinochloa crus-galli); settings: amount of applied herbicide 320 g/ha
Outline: as §1

barnyard grass [22] = assay: Test Example 5: herbicidal effect by foliage application, plastic box (Table 20, symbol H); assay type: in vivo, barnyard grass (Echinochloa crus-galli); settings: foliage application
Outline: as §4

late watergrass = assay: Test Example 1: herbicidal activity, application before weed generation under submerged conditions (Table 16, symbol A); assay type: in vivo, late watergrass (Echinochloa oryzicola); settings: amount of applied herbicide 320 g/ha
Outline: as §3

southern crabgrass [23] = assay: Test Example 5: herbicidal effect by foliage application, plastic box (Table 20, symbol F); assay type: in vivo, southern crabgrass (Digitaria ciliaris); settings: foliage application
Outline: as §4

velvetleaf [24] = assay: Test Example 5: herbicidal effect by foliage application, plastic box (Table 20, symbol M); assay type: in vivo, velvetleaf (Abutilon theophrasti); settings: foliage application
Outline: as §4

lambsquarters [25] = assay: Test Example 5: herbicidal effect by foliage application, plastic box (Table 20, symbol O); assay type: in vivo, lambsquarters (Chenopodium album); settings: foliage application
Outline: as §4

[26] = 320 g/ha, three weeks after application
[27] = amount of applied herbicide 320 g/ha
[28] = AAH 320 g/ha, evaluated three weeks after application

Cc1nn(C)c(=O)c(-c2c(-c3ccc(OC(F)F)cc3)sc3cc(F)ccc23)c1O [3-141]
Herbicidal effect by soil treatment, O: lambsquarters (lambsquarters [1]): 5 (Herbicidal rate of 90% or more (almost completely withered)) | herbicidal effect on rice flat sedge (E) (rice flat sedge; 320 g/ha): 5 (Herbicidal rate of 90% or more (almost completely withered)) | Herbicidal effect, C: oval-leafed pondweed (oval-leafed pondweed): 0 (Herbicidal rate of 5% or less (almost no effect)) | Herbicidal effect by soil treatment, P: chickweed (chickweed [2]): 3 (Herbicidal rate of 40% or more and less than 70%) | Herbicidal effect by soil treatment, J: blackgrass (blackgrass [3]): 3 (Herbicidal rate of 40% or more and less than 70%) | P: chickweed, herbicidal effect grade (chickweed [4]; [26]): 5 (Herbicidal rate of 90% or more (almost completely withered)) | Herbicidal effect by soil treatment, Q: false cleavers (false cleavers): 0 (Herbicidal rate of 5% or less (almost no effect)) | N: redroot pigweed, herbicidal effect grade (redroot pigweed [5]; [26]): 5 (Herbicidal rate of 90% or more (almost completely withered)) | Herbicidal effect by soil treatment, K: Italian ryegrass (Italian ryegrass [6]): 3 (Herbicidal rate of 40% or more and less than 70%) | I: wild oat, herbicidal effect grade (wild oat [7]; [26]): 1 (Herbicidal rate of 5% or more and less than 20%) | Herbicidal effect by soil treatment, F: southern crabgrass (southern crabgrass [8]): 0 (Herbicidal rate of 5% or less (almost no effect)) | Herbicidal effect, B: Japanese bulrush (Japanese bulrush): 0 (Herbicidal rate of 5% or less (almost no effect)) | K: Italian ryegrass, herbicidal effect grade (Italian ryegrass [9]; [26]): 5 (Herbicidal rate of 90% or more (almost completely withered)) | herbicidal effect on barnyard grass (H) (barnyard grass [10]): 5 (Herbicidal rate of 90% or more (almost completely withered)) | Herbicidal effect by soil treatment, G: green foxtail (green foxtail [11]): 1 (Herbicidal rate of 5% or more and less than 20%) | herbicidal effect on Chinese sprangletop (D) (Chinese sprangletop; 320 g/ha): 2 (Herbicidal rate of 20% or more and less than 40%) | G: green foxtail, herbicidal effect grade (green foxtail [12]; [26]): 5 (Herbicidal rate of 90% or more (almost completely withered)) | J: blackgrass, herbicidal effect grade (blackgrass [13]; [26]): 4 (Herbicidal rate of 70% or more and less than 90%) | Herbicidal effect by soil treatment, M: velvetleaf (velvetleaf [14]): 3 (Herbicidal rate of 40% or more and less than 70%) | Herbicidal effect by soil treatment, I: wild oat (wild oat [15]): 0 (Herbicidal rate of 5% or less (almost no effect)) | Herbicidal effect by soil treatment, L: windgrass (windgrass [16]): 3 (Herbicidal rate of 40% or more and less than 70%) | L: windgrass, herbicidal effect grade (windgrass [17]; [26]): 5 (Herbicidal rate of 90% or more (almost completely withered)) | Herbicidal effect by soil treatment, R: persian speedwell (persian speedwell [18]): 4 (Herbicidal rate of 70% or more and less than 90%) | R: persian speedwell, herbicidal effect grade (persian speedwell [19]; [26]): 5 (Herbicidal rate of 90% or more (almost completely withered)) | Herbicidal effect by soil treatment, N: redroot pigweed (redroot pigweed [20]): 5 (Herbicidal rate of 90% or more (almost completely withered)) | Herbicidal effect by soil treatment, H: barnyard grass (barnyard grass [21]): 3 (Herbicidal rate of 40% or more and less than 70%) | H: barnyard grass, herbicidal effect grade (barnyard grass [22]; [26]): 4 (Herbicidal rate of 70% or more and less than 90%) | Herbicidal effect, A: late watergrass (late watergrass): 3 (Herbicidal rate of 40% or more and less than 70%) | F: southern crabgrass, herbicidal effect grade (southern crabgrass [23]; [26]): 0 (Herbicidal rate of 5% or less (almost no effect)) | M: velvetleaf, herbicidal effect grade (velvetleaf [24]; [26]): 5 (Herbicidal rate of 90% or more (almost completely withered)) | O: lambsquarters, herbicidal effect grade (lambsquarters [25]; [26]): 5 (Herbicidal rate of 90% or more (almost completely withered))

CCn1nc(C)c(O)c(-c2c(-c3ccc(F)cc3)sc3ccc(F)cc23)c1=O [2-398]
herbicidal effect, O: lambsquarters (lambsquarters [1]): 3 (Herbicidal rate of 40% or more and less than 70%) | herbicidal effect on E: rice flat sedge (rice flat sedge; [27]): 3 (Herbicidal rate of 40% or more and less than 70%) | Herbicidal effect, C: oval-leafed pondweed (oval-leafed pondweed): 0 (Herbicidal rate of 5% or less (almost no effect)) | herbicidal effect, P: chickweed (chickweed [2]): 0 (Herbicidal rate of 5% or less (almost no effect)) | herbicidal effect, J: blackgrass (blackgrass [3]): 0 (Herbicidal rate of 5% or less (almost no effect)) | P: chickweed, herbicidal effect (criteria 0-5) (chickweed [4]; [28]): 5 (Herbicidal rate of 90% or more (almost completely withered)) | herbicidal effect, Q: false cleavers (false cleavers): 0 (Herbicidal rate of 5% or less (almost no effect)) | N: redroot pigweed, herbicidal effect (criteria 0-5) (redroot pigweed [5]; [28]): 5 (Herbicidal rate of 90% or more (almost completely withered)) | herbicidal effect, K: Italian ryegrass (Italian ryegrass [6]): 4 (Herbicidal rate of 70% or more and less than 90%) | I: wild oat, herbicidal effect (criteria 0-5) (wild oat [7]; [28]): 0 (Herbicidal rate of 5% or less (almost no effect)) | herbicidal effect, F: southern crabgrass (southern crabgrass [8]): 3 (Herbicidal rate of 40% or more and less than 70%) | Herbicidal effect, B: Japanese bulrush (Japanese bulrush): 3 (Herbicidal rate of 40% or more and less than 70%) | K: Italian ryegrass, herbicidal effect (criteria 0-5) (Italian ryegrass [9]; [28]): 4 (Herbicidal rate of 70% or more and less than 90%) | herbicidal effect, G: green foxtail (green foxtail [11]): 3 (Herbicidal rate of 40% or more and less than 70%) | herbicidal effect on D: Chinese sprangletop (Chinese sprangletop; [27]): 0 (Herbicidal rate of 5% or less (almost no effect)) | G: green foxtail, herbicidal effect (criteria 0-5) (green foxtail [12]; [28]): 4 (Herbicidal rate of 70% or more and less than 90%) | J: blackgrass, herbicidal effect (criteria 0-5) (blackgrass [13]; [28]): 0 (Herbicidal rate of 5% or less (almost no effect)) | herbicidal effect, M: velvetleaf (velvetleaf [14]): 1 (Herbicidal rate of 5% or more and less than 20%) | herbicidal effect, I: wild oat (wild oat [15]): 0 (Herbicidal rate of 5% or less (almost no effect)) | herbicidal effect, L: windgrass (windgrass [16]): 0 (Herbicidal rate of 5% or less (almost no effect)) | L: windgrass, herbicidal effect (criteria 0-5) (windgrass [17]; [28]): 0 (Herbicidal rate of 5% or less (almost no effect)) | herbicidal effect, R: persian speedwell (persian speedwell [18]): 1 (Herbicidal rate of 5% or more and less than 20%) | R: persian speedwell, herbicidal effect (criteria 0-5) (persian speedwell [19]; [28]): 5 (Herbicidal rate of 90% or more (almost completely withered)) | herbicidal effect, N: redroot pigweed (redroot pigweed [20]): 4 (Herbicidal rate of 70% or more and less than 90%) | herbicidal effect, H: barnyard grass (barnyard grass [21]): 2 (Herbicidal rate of 20% or more and less than 40%) | H: barnyard grass, herbicidal effect (criteria 0-5) (barnyard grass [22]; [28]): 5 (Herbicidal rate of 90% or more (almost completely withered)) | Herbicidal effect, A: late watergrass (late watergrass): 3 (Herbicidal rate of 40% or more and less than 70%) | F: southern crabgrass, herbicidal effect (criteria 0-5) (southern crabgrass [23]; [28]): 4 (Herbicidal rate of 70% or more and less than 90%) | M: velvetleaf, herbicidal effect (criteria 0-5) (velvetleaf [24]; [28]): 5 (Herbicidal rate of 90% or more (almost completely withered)) | O: lambsquarters, herbicidal effect (criteria 0-5) (lambsquarters [25]; [28]): 4 (Herbicidal rate of 70% or more and less than 90%)
